PubChem BioAssay AID330 (DTP/NCI, 2004)
“And” between values parts separate entries of the source, which are not always exact repeats. Identical values can stand only once. Toxic doses and inconclusive results are not listed. How the source made its calls: active means survival T/C of 150% or more; inactive means T/C below 125% in these data.

Tested on: P388 leukemia ip, CD2F1 mice, survival T/C
Assay: NCI In Vivo Anticancer Drug Screen. Data for tumor model P388 Leukemia (intraperitoneal) in CD2F1 (CDF1) mice
Conditions: endpoint: median survival time, higher = longer survival
How it was run: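 Mice carrying the transplanted tumor received test compound or vehicle. Survival was recorded in each group, and the value is the treated-group measurement divided by that of the vehicle-treated control group.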

[1] = dose: 100.0 mg/kg/injection, schedule: Q04DX003 (ip), vehicle: Klucel (hydroxypropylcellulose) (HPC)
[2] = dose: 200.0 mg/kg/injection, schedule: Q04DX003 (ip), vehicle: Klucel (hydroxypropylcellulose) (HPC)
[3] = dose: 50.0 mg/kg/injection, schedule: Q01DX009 (ip), vehicle: saline
[4] = dose: 100.0 mg/kg/injection, schedule: Q01DX009 (ip), vehicle: saline
[5] = dose: 200.0 mg/kg/injection, schedule: Q01DX009 (ip), vehicle: saline
[6] = dose: 50.0 mg/kg/injection, schedule: Q01DX005 (ip), vehicle: saline with Tween-80
[7] = dose: 100.0 mg/kg/injection, schedule: Q01DX005 (ip), vehicle: saline with Tween-80
[8] = dose: 200.0 mg/kg/injection, schedule: Q01DX005 (ip), vehicle: saline with Tween-80
[9] = dose: 50.0 mg/kg/injection, schedule: Q01DX009 (ip), vehicle: Klucel (hydroxypropylcellulose) (HPC)
[10] = dose: 100.0 mg/kg/injection, schedule: Q01DX009 (ip), vehicle: Klucel (hydroxypropylcellulose) (HPC)
[11] = dose: 200.0 mg/kg/injection, schedule: Q01DX009 (ip), vehicle: Klucel (hydroxypropylcellulose) (HPC)
[12] = dose: 12.5 mg/kg/injection, schedule: Q01DX009 (ip), vehicle: saline
[13] = dose: 25.0 mg/kg/injection, schedule: Q01DX009 (ip), vehicle: saline
[14] = dose: 100.0 mg/kg/injection, schedule: Q01DX009 (ip), vehicle: saline with Tween-80
[15] = dose: 100.0 mg/kg/injection, schedule: Q04DX003 (ip), vehicle: saline with Tween-80
[16] = dose: 200.0 mg/kg/injection, schedule: Q01DX009 (ip), vehicle: saline with Tween-80
[17] = dose: 400.0 mg/kg/injection, schedule: Q01DX009 (ip), vehicle: saline with Tween-80
[18] = dose: 25.0 mg/kg/injection, schedule: Q01DX005 (ip), vehicle: saline
[19] = dose: 50.0 mg/kg/injection, schedule: Q01DX005 (ip), vehicle: saline
[20] = dose: 400.0 mg/kg/injection, schedule: Q01DX009 (ip), vehicle: saline

Measured: T/C

N=C(N)c1nn[nH]n1
inactive: dose: 12.5 mg/kg/injection, schedule: Q04DX003 (ip), vehicle: Klucel (hydroxypropylcellulose) (HPC) 100 % of control | dose: 25.0 mg/kg/injection, schedule: Q04DX003 (ip), vehicle: Klucel (hydroxypropylcellulose) (HPC) 100 % of control | dose: 50.0 mg/kg/injection, schedule: Q04DX003 (ip), vehicle: Klucel (hydroxypropylcellulose) (HPC) 97 % of control | [1] 103 % of control | [2] 100 % of control

O=C(O)C1CSC2(CCCN(Cc3ccccc3)C2)N1 (stereo not drawn)
inactive: [3] 96 % of control | [4] 106 % of control | [5] 113 % of control

O=[N+]([O-])c1ccc(Cl)c(S(=O)(=O)Cl)c1
inactive: [6] 97 % of control | [7] 88 % of control | [8] 92 % of control

O=S(=O)(c1ccc(NC(=S)N2CCCCC2)cc1)N1CCCCC1
inactive: [9] 95 % of control | [10] 88 % of control | [11] 86 % of control

O=C(CCN1CCCC1)c1ccccc1
inactive: [12] 98 % of control | [13] 100 % of control | [3] 100 % of control

N#Cc1cnn(C(N)=O)c1N
inactive: [14] 110 % of control | [15] 100 % of control | [16] 110 % of control | dose: 200.0 mg/kg/injection, schedule: Q04DX003 (ip), vehicle: saline with Tween-80 100 % of control | [17] 100 % of control | dose: 400.0 mg/kg/injection, schedule: Q04DX003 (ip), vehicle: saline with Tween-80 100 % of control

O=[N+]([O-])c1ccc(Br)cc1
inactive: [3] 106 % of control | [4] 108 % of control | [5] 101 % of control

Cc1ccc(C(=O)Nc2ccc(S(=O)(=O)O)c3cc(S(=O)(=O)O)cc(S(=O)(=O)O)c23)cc1NC(=O)c1cccc(NC(=O)Nc2cccc(C(=O)Nc3cc(C(=O)Nc4ccc(S(=O)(=O)O)c5cc(S(=O)(=O)O)cc(S(=O)(=O)O)c45)ccc3C)c2)c1
inactive: [18] 106 % of control | [19] 95 % of control

C/C(=C1/c2ccccc2-c2n[nH]c(C)c21)S(=O)(=O)O
inactive: [14] 109 % of control | [16] 109 % of control | [17] 100 % of control

CC(C#N)C(N)=O (stereo not drawn)
inactive: dose: 12.5 mg/kg/injection, schedule: Q04DX003 (ip), vehicle: saline 100 % of control | dose: 25.0 mg/kg/injection, schedule: Q04DX003 (ip), vehicle: saline 105 % of control | dose: 50.0 mg/kg/injection, schedule: Q04DX003 (ip), vehicle: saline 110 % of control

COC(=O)C1c2c(C)cc3n2C(C(C)=CC3)C1C(=O)OC (stereo not drawn)
inactive: [1] 99 % of control | [2] 96 % of control | dose: 400.0 mg/kg/injection, schedule: Q04DX003 (ip), vehicle: Klucel (hydroxypropylcellulose) (HPC) 99 % of control

CC(=O)C1=C(O)/C(=C\C=C\c2ccccc2)OC1=O
inactive: [9] 111 % of control | [10] 104 % of control | [11] 118 % of control

Nc1nc(N)c2nc(NCc3ccc(C(=O)NC(CCC(=O)O)C(=O)O)cc3)cnc2n1 (stereo not drawn)
inactive: [3] 100 % of control | [4] 109 % of control | [5] 113 % of control | [20] 95 % of control

OCC12CCCC(CO)(COC1)C2O (stereo not drawn)
inactive: [18] 105 % of control | [19] 105 % of control | dose: 100.0 mg/kg/injection, schedule: Q01DX005 (ip), vehicle: saline 100 % of control | dose: 200.0 mg/kg/injection, schedule: Q01DX005 (ip), vehicle: saline 115 % of control

Cc1ccc(OP(=O)(Oc2ccc(C)cc2)Oc2ccc(C)cc2)cc1.Cc1ccc(OP(=O)(Oc2ccc(C)cc2)Oc2ccc(C)cc2)cc1.[Cl][Cr]([Cl])[Cl]
inactive: dose: 100.0 mg/kg/injection, schedule: Q01DX001 (ip), vehicle: Klucel (hydroxypropylcellulose) (HPC) 100 % of control | dose: 200.0 mg/kg/injection, schedule: Q01DX001 (ip), vehicle: Klucel (hydroxypropylcellulose) (HPC) 95 % of control | dose: 400.0 mg/kg/injection, schedule: Q01DX001 (ip), vehicle: Klucel (hydroxypropylcellulose) (HPC) 99 % of control

COc1ccc(Br)c(C(=O)Sc2nnnn2-c2cccc(Cl)c2)c1
inactive: dose: 50.0 mg/kg/injection, schedule: Q01DX009 (ip), vehicle: saline with Tween-80 111 % of control | [14] 116 % of control | [16] 115 % of control

Cc1cc(NC(=O)COCC(=O)O)no1
inactive: dose: 60.0 mg/kg/injection, schedule: Q01DX005 (ip), vehicle: Klucel (hydroxypropylcellulose) (HPC) 101 % of control | dose: 120.0 mg/kg/injection, schedule: Q01DX005 (ip), vehicle: Klucel (hydroxypropylcellulose) (HPC) 101 % of control | dose: 240.0 mg/kg/injection, schedule: Q01DX005 (ip), vehicle: Klucel (hydroxypropylcellulose) (HPC) 92 % of control

O=[N+]([O-])c1nccn1CC(O)CO (stereo not drawn)
inactive: [12] 103 % of control and 116 % of control | [13] 101 % of control and 121 % of control | [3] 103 % of control and 116 % of control and 98 % of control | [4] 102 % of control and 106 % of control and 116 % of control | [5] 104 % of control and 107 % of control and 121 % of control | dose: 360.0 mg/kg/injection, schedule: Q01DX001 (ip), vehicle: saline 101 % of control and 102 % of control | [20] 102 % of control and 106 % of control | dose: 600.0 mg/kg/injection, schedule: Q01DX001 (ip), vehicle: saline 100 % of control and 102 % of control | dose: 1000.0 mg/kg/injection, schedule: Q01DX001 (ip), vehicle: saline 101 % of control and 104 % of control

CCN(CC)CCOc1ccc(C(=O)CC(=O)c2c(-c3ccccc3)n(C)c3ccccc23)cc1
inactive: dose: 50.0 mg/kg/injection, schedule: Q01DX001 (ip), vehicle: saline 101 % of control | dose: 100.0 mg/kg/injection, schedule: Q01DX001 (ip), vehicle: saline 94 % of control | dose: 200.0 mg/kg/injection, schedule: Q01DX001 (ip), vehicle: saline 91 % of control

O=[n+]1ccn([O-])c2ccccc21.[Mn].[O-][Cl+3]([O-])([O-])O
inactive: [15] 118 % of control

c1cn2cnnc2n2cnnc12
inactive: [6] 100 % of control | [7] 105 % of control | [8] 97 % of control
